In PubChem BioAssay (NCI):
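Five compound concentrations were applied to cells in 96-well plates for 48 hours; endpoints were derived by simple linear interpolation of the resulting dose-response curve. Abbreviation: GI50, concentration required for 50% inhibition of growth. At the TGI there is no net growth.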

Assays:
Assay in all cases: NCI anticancer screen, dose series, 48 h
EKVX NSCLC = tested on: EKVX NSCLC
SK-MEL-2 melanoma = tested on: SK-MEL-2 melanoma
DU-145 prostate = tested on: DU-145 prostate
MDA-MB-435 = tested on: MDA-MB-435
COLO 205 colon = tested on: COLO 205 colon
SF-268 CNS = tested on: SF-268 CNS
NCI-H226 lung = tested on: NCI-H226 lung
HT29 colon = tested on: HT29 colon
SR leukemia = tested on: SR leukemia
HCT-15 colon = tested on: HCT-15 colon
MDA-MB-231 breast = tested on: MDA-MB-231 breast
786-0 renal = tested on: 786-0 renal
OVCAR-3 ovarian = tested on: OVCAR-3 ovarian
SNB-19 CNS = tested on: SNB-19 CNS
T-47D breast = tested on: T-47D breast
OVCAR-8 ovarian = tested on: OVCAR-8 ovarian
LOX IMVI melanoma = tested on: LOX IMVI melanoma
NCI/ADR-RES ovarian = tested on: NCI/ADR-RES ovarian
SK-MEL-5 melanoma = tested on: SK-MEL-5 melanoma
CAKI-1 renal = tested on: CAKI-1 renal
UACC-257 melanoma = tested on: UACC-257 melanoma
TK-10 renal = tested on: TK-10 renal
OVCAR-4 ovarian = tested on: OVCAR-4 ovarian
SF-539 CNS = tested on: SF-539 CNS
HOP-92 NSCLC = tested on: HOP-92 NSCLC
IGROV1 ovarian = tested on: IGROV1 ovarian
M14 melanoma = tested on: M14 melanoma
MALME-3M melanoma = tested on: MALME-3M melanoma
CCRF-CEM leukemia = tested on: CCRF-CEM leukemia
BT-549 breast = tested on: BT-549 breast
NCI-H522 lung = tested on: NCI-H522 lung
SW-620 colon = tested on: SW-620 colon
U251 CNS = tested on: U251 CNS
HCT-116 colon = tested on: HCT-116 colon
SF-295 CNS = tested on: SF-295 CNS
HCC-2998 colon = tested on: HCC-2998 colon
SNB-75 CNS = tested on: SNB-75 CNS
NCI-H23 lung = tested on: NCI-H23 lung
A498 renal = tested on: A498 renal
OVCAR-5 ovarian = tested on: OVCAR-5 ovarian
ACHN renal = tested on: ACHN renal
SK-MEL-28 melanoma = tested on: SK-MEL-28 melanoma
SN12C renal = tested on: SN12C renal
KM12 colon = tested on: KM12 colon
NCI-H460 lung = tested on: NCI-H460 lung
PC-3 prostate = tested on: PC-3 prostate
MCF7 breast = tested on: MCF7 breast
RPMI-8226 leukemia = tested on: RPMI-8226 leukemia
UACC-62 melanoma = tested on: UACC-62 melanoma
MOLT-4 leukemia = tested on: MOLT-4 leukemia
HS 578T breast = tested on: HS 578T breast
RXF 393 renal = tested on: RXF 393 renal
SK-OV-3 ovarian = tested on: SK-OV-3 ovarian
HOP-62 NSCLC = tested on: HOP-62 NSCLC
HL-60(TB) leukemia = tested on: HL-60(TB) leukemia

Question: What does the source list for C[C@@H](O)[C@H]1C(=O)N2C(C(=O)O)=C(SCCN=CN)C[C@H]12?
Answer: GI50 (EKVX NSCLC): 1250 nM; TGI (EKVX NSCLC): 8610 nM; GI50 (SK-MEL-2 melanoma): 2540 nM; TGI (SK-MEL-2 melanoma): 7700 nM; GI50 (DU-145 prostate): 2560 nM; TGI (DU-145 prostate): 11700 nM; GI50 (MDA-MB-435): 2380 nM; TGI (MDA-MB-435): 6010 nM; GI50 (COLO 205 colon): 1380 nM; TGI (COLO 205 colon): 3220 nM; GI50 (SF-268 CNS): 1730 nM; TGI (SF-268 CNS): 5360 nM; GI50 (NCI-H226 lung): 1550 nM; TGI (NCI-H226 lung): 3520 nM; GI50 (HT29 colon): 3100 nM; TGI (HT29 colon): 18300 nM; GI50 (SR leukemia): 1560 nM; TGI (SR leukemia): 4940 nM; GI50 (HCT-15 colon): 2960 nM; TGI (HCT-15 colon): 11100 nM; GI50 (MDA-MB-231 breast): 2160 nM; TGI (MDA-MB-231 breast): 8040 nM; GI50 (786-0 renal): 2980 nM; TGI (786-0 renal): 11000 nM; GI50 (OVCAR-3 ovarian): 2950 nM; TGI (OVCAR-3 ovarian): 84100 nM; GI50 (SNB-19 CNS): 2190 nM; TGI (SNB-19 CNS): 8490 nM; GI50 (T-47D breast): 2650 nM; TGI (T-47D breast): 9340 nM; GI50 (OVCAR-8 ovarian): 1580 nM; TGI (OVCAR-8 ovarian): 32500 nM; GI50 (LOX IMVI melanoma): 1440 nM; TGI (LOX IMVI melanoma): 3970 nM; GI50 (NCI/ADR-RES ovarian): 1850 nM; TGI (NCI/ADR-RES ovarian): 6220 nM; GI50 (SK-MEL-5 melanoma): 1560 nM; TGI (SK-MEL-5 melanoma): 2930 nM; GI50 (CAKI-1 renal): 2130 nM; TGI (CAKI-1 renal): 5390 nM; GI50 (UACC-257 melanoma): 1800 nM; TGI (UACC-257 melanoma): 3780 nM; GI50 (TK-10 renal): 4330 nM; TGI (TK-10 renal): > 100000 nM; GI50 (OVCAR-4 ovarian): 2210 nM; TGI (OVCAR-4 ovarian): 6410 nM; GI50 (SF-539 CNS): 2250 nM; TGI (SF-539 CNS): 6350 nM; GI50 (HOP-92 NSCLC): 1800 nM; TGI (HOP-92 NSCLC): 5200 nM; GI50 (IGROV1 ovarian): 1470 nM; TGI (IGROV1 ovarian): 9060 nM; GI50 (M14 melanoma): 1860 nM; TGI (M14 melanoma): 3520 nM; GI50 (MALME-3M melanoma): 1690 nM; TGI (MALME-3M melanoma): 3330 nM; GI50 (CCRF-CEM leukemia): 1660 nM; TGI (CCRF-CEM leukemia): 5730 nM; GI50 (BT-549 breast): 2330 nM; TGI (BT-549 breast): 7600 nM; GI50 (NCI-H522 lung): 1580 nM; TGI (NCI-H522 lung): 4120 nM; GI50 (SW-620 colon): 744 nM; TGI (SW-620 colon): 10400 nM; GI50 (U251 CNS): 2340 nM; TGI (U251 CNS): 10900 nM; GI50 (HCT-116 colon): 1430 nM; TGI (HCT-116 colon): 6040 nM; GI50 (SF-295 CNS): 2670 nM; TGI (SF-295 CNS): 7500 nM; GI50 (HCC-2998 colon): 1810 nM; TGI (HCC-2998 colon): 3890 nM; GI50 (SNB-75 CNS): 2120 nM; TGI (SNB-75 CNS): 5100 nM; GI50 (NCI-H23 lung): 1810 nM; TGI (NCI-H23 lung): 4780 nM; GI50 (A498 renal): 853 nM; TGI (A498 renal): 2440 nM; GI50 (OVCAR-5 ovarian): 2910 nM; TGI (OVCAR-5 ovarian): 9440 nM; GI50 (ACHN renal): 1470 nM; TGI (ACHN renal): 5800 nM; GI50 (SK-MEL-28 melanoma): 1860 nM; TGI (SK-MEL-28 melanoma): 3690 nM; GI50 (SN12C renal): 971 nM; TGI (SN12C renal): 9470 nM; GI50 (KM12 colon): 1480 nM; TGI (KM12 colon): 11400 nM; GI50 (NCI-H460 lung): 1580 nM; TGI (NCI-H460 lung): 5730 nM; GI50 (PC-3 prostate): 2230 nM; TGI (PC-3 prostate): 7270 nM; GI50 (MCF7 breast): 2890 nM; TGI (MCF7 breast): 11200 nM; GI50 (RPMI-8226 leukemia): 1900 nM; TGI (RPMI-8226 leukemia): 6710 nM; GI50 (UACC-62 melanoma): 1720 nM; TGI (UACC-62 melanoma): 3330 nM; GI50 (MOLT-4 leukemia): 2320 nM; TGI (MOLT-4 leukemia): 6260 nM; GI50 (HS 578T breast): 2690 nM; TGI (HS 578T breast): 28300 nM; GI50 (RXF 393 renal): 1550 nM; TGI (RXF 393 renal): 3580 nM; GI50 (SK-OV-3 ovarian): 1380 nM; TGI (SK-OV-3 ovarian): 15800 nM; GI50 (HOP-62 NSCLC): 1850 nM; TGI (HOP-62 NSCLC): 5820 nM; GI50 (HL-60(TB) leukemia): 2450 nM; TGI (HL-60(TB) leukemia): 6150 nM
